Measured values reported in patent US4550186A, “Binuclear copper (II) carboxylates formed from amine-carboxyboranes” (Duke University, priority 1983, dated 1985).

Legend:
[1] = molecular target: T1, carbamyl phosphate synthetase (Mus musculus, UniProt B2RQC6); test: In vivo carbamyl phosphate synthetase activity
T1 construct: CPSase II domain of CAD; ornithine transcarbamylase used as coupling enzyme
Protocol: (§1) CF1 male mice (~30 g) were implanted with 2×10^6 Ehrlich ascites tumor cells, intraperitoneally on Day 0. Compound I was suspended by homogenation in 0.05% polysorbate.80-water and administered intraperitoneally at 10 and 20 mg/kg for 9 days to determine its effectiveness for inhibition of tumor growth. Mice were sacrificed on Day 10, and the ascites fluid was collected from the peritoneal cavity. The volume and ascrit (packed cell volume) were determined for each animal and the percent inhibition of tumor growth was calculated. For the metabolic studies, mice were treated on Days 8 and 9 with 10 mg/kg of Compound I, intraperitoneally. […]
Carbamyl phosphate synthetase activity was determined using the reaction medium of Kalman et al [Am. […] Citrulline formed from ornithine was measured at 490 nm by the method of Archibald [J. Biol. Chem., 156, 121 (1944)]. […] The ^14 CO2 generated in 15 min was trapped in 1M KOH and counted. Thymidylate synthetase activity was determined using a post-mitochondrial supernatant (9000 g×10 min) and 5 μCi of 5-^3 H-deoxyuridine monophosphate (14 Ci/mmol) according to the method of Kampf et al [ J. Med. Chem., 19, 903 (1976)]. ^14 C-Formate incorporation into purines was determined by the method of Spassova et al [Biochem. Pharmacol., 25, 923 (1976)] using 0.5 μCi of ^14 C-formic acid (52.0 mCi/mmol). […] The Rf value for xanthine monophosphate was scraped and counted. […]

[2] = system: deoxyribonucleic acid synthesis of Ehrlich ascites cells; test: In vivo thymidine incorporation into deoxyribonucleic acid; set-up: species or system mouse
Protocol: as §1, with “intraperitoneally. The animal was sacrificed on Day 10 and the ascites fluid harvested.” for “intraperitoneally.”
For in vivo studies, incorporation of thymidine into deoxyribonucleic acid was determined by the method of Chae et al [Proc. Am. […] The deoxyribonucleic acid was isolated and the tritium content was determined in a toluene based scintillation fluid. The deoxyribonucleic acid concentration was determined by the diphenylamine reaction using calf thymus deoxyribonucleic acid as a standard. Uridine incorporation into ribonucleic acid was determined using 10 μCi of 5,6-^3 H-uridine (22.4 Ci/mmol). […] Leucine incorporation into protein was determined by the method of Sartorelli [Biochem. Biophys. […] Protein content was determined by the Lowry procedure using bovine serum albumin as a standard.

[3] = 10 mg/kg/day I.P. on Days 8 and 9

T1 sequence (B2RQC6 2-2225): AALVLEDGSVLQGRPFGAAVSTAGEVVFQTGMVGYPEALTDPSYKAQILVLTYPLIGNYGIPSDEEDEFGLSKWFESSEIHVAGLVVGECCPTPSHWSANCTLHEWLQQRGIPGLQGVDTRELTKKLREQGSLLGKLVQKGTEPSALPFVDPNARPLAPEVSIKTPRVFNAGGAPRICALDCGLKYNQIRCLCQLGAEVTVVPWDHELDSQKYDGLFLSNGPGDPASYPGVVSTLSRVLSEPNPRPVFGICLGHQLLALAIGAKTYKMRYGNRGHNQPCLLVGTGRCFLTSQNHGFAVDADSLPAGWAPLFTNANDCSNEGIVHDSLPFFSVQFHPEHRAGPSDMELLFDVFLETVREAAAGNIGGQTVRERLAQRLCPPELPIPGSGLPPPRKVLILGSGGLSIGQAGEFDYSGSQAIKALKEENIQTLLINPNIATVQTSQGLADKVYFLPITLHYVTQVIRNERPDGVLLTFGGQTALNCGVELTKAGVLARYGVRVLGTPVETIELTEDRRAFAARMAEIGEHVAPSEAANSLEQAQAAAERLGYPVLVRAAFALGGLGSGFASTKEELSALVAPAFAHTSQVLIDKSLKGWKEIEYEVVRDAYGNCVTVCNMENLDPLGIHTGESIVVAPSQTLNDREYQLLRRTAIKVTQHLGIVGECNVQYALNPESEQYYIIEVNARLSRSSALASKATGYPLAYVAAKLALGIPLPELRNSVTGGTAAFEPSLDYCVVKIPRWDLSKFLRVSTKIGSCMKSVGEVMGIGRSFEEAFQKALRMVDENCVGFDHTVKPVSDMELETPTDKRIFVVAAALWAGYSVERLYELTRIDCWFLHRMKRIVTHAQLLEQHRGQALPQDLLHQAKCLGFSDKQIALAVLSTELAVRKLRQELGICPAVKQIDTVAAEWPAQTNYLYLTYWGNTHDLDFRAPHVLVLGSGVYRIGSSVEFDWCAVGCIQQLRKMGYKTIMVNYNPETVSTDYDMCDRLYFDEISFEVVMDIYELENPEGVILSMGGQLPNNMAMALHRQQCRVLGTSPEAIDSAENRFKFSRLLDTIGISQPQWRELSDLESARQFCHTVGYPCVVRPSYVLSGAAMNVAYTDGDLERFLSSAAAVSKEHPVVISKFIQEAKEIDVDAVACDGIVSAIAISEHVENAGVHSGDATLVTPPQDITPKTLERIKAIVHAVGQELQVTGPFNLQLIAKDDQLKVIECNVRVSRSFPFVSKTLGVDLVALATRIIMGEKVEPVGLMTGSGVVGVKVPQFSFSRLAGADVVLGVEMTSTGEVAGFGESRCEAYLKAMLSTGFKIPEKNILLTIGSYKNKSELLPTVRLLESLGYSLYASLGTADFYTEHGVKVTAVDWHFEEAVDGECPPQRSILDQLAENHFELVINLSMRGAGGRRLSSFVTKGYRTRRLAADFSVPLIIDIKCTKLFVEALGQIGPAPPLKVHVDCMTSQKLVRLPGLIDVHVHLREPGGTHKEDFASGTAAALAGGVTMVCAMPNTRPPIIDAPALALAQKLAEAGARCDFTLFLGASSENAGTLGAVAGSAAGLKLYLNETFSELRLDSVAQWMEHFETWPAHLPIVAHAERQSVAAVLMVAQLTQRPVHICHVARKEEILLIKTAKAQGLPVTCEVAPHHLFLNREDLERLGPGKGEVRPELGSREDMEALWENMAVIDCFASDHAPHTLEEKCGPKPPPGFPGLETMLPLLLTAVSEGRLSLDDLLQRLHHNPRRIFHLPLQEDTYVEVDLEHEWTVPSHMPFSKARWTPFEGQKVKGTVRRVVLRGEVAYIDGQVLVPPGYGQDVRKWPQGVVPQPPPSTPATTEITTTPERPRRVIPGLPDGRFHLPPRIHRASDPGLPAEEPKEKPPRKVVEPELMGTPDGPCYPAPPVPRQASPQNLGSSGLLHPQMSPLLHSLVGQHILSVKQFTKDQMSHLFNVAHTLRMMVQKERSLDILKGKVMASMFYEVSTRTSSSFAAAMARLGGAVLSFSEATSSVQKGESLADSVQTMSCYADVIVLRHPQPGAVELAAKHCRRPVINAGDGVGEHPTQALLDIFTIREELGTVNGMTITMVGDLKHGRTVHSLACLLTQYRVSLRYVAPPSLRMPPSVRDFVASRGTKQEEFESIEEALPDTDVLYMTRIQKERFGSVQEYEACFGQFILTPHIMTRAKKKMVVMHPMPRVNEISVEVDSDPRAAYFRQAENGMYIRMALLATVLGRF

## {Cu[(CH3)3 N.BH2 CO2 ]2.(CH3)3 N.BH2 COOH} [Compound I]
[1]
  Carbamyl phosphate synthetase activity reduced: 23%
[1]; [3]
  Carbamyl phosphate synthetase activity: 77 ± 8 % Control
[2]; [3]
  3H-Thymidine incorporation into deoxyribonucleic acid: 43 ± 5 % Control
[2]; 10 day Ehrlich ascites cells
  thymidine incorporation into deoxyribonucleic acid inhibited: 57%
